Data from patent US4956294A, “Culture of Streptoverticillium synroense for producing an antibacterial” (Merck & Co., Inc., priority 1989, dated 1990).
Converted amounts (≈) assume the structure as drawn.

Experiments:
Eubacterium limosum 3344 = assay: Anaerobic agar dilution, Wilkens-Chalgren agar; assay type: cell-based; settings: inoculum 10^6 cfu/spot, 35° C., 48 hours
Description: (a) Wilkens-Chalgren agar was used instead of antagonist-free medium (Roche);
(b) The inoculum/spot was about 10^6 instead of about 10^4 ;
(c) The incubation period was for 48 hours, not 24 hours; and
(d) Incubations were performed under anaerobic conditions.

E. coli TEM 2+ 4351 [1] = assay: Agar dilution, trypticase soy agar; settings: Escherichia coli, 20 h
[2] = tested on: C. difficile Clind^r 4273; assay: Anaerobic agar dilution, Wilkens-Chalgren agar; assay type: cell-based; settings: Clostridioides difficile; anaerobic, inoculum 10^6 cfu/spot, 35° C., 48 hours; read-out: MIC
Ent. cloacae P99+ 2646 = assay: Agar dilution, trypticase soy agar; settings: Enterobacter cloacae, 20 h
[3] = tested on: Prot. mirabilis Gm^r 2830; assay: Agar dilution, trypticase soy agar; settings: Proteus mirabilis, 20 h
B. fragilis Pen^r 3214 = assay: Anaerobic agar dilution, Wilkens-Chalgren agar; assay type: cell-based; settings: Bacteroides fragilis; anaerobic, inoculum 10^6 cfu/spot, 35° C., 48 hours; read-out: MIC
C. perfringens 3512 = assay: microbe, parasite or virus in culture; assay type: cell-based; settings: Clostridium perfringens, 3512, 48 h
K. pneumoniae 4005 = assay: Agar dilution, trypticase soy agar; settings: Klebsiella pneumoniae, 4005, 20 h
C. perfringens 2237 = assay: microbe, parasite or virus in culture; assay type: cell-based; settings: Clostridium perfringens, 2237, 48 h
Sal. typhimurium 3860 [4] = assay: Agar dilution, trypticase soy agar; settings: Salmonella enterica, 20 h
E. coli 2891 [5] = assay: Agar dilution, trypticase soy agar; settings: Escherichia coli, 2891, 20 h
[6] = tested on: Bifidobacterium dentium Fox^r 4427; assay: Anaerobic agar dilution, Wilkens-Chalgren agar; assay type: cell-based; settings: 48 h
K. pneumoniae K1+ 4354 = assay: Agar dilution, trypticase soy agar; settings: Klebsiella pneumoniae, 20 h
C. difficile Fox^r 4380 = assay: Anaerobic agar dilution, Wilkens-Chalgren agar; assay type: cell-based; settings: Clostridioides difficile; anaerobic, inoculum 10^6 cfu/spot, 35° C., 48 hours; read-out: MIC
[7] = tested on: B. distasonis Pen^r, Fox^r, Clind^r 4361; assay: Anaerobic agar dilution, Wilkens-Chalgren agar; assay type: cell-based; settings: Parabacteroides distasonis; anaerobic, inoculum 10^6 cfu/spot, 35° C., 48 hours; read-out: MIC
C. perfringens 3508 = assay: microbe, parasite or virus in culture; assay type: cell-based; settings: Clostridium perfringens, 3508, 48 h
C. perfringens 3510 = assay: microbe, parasite or virus in culture; assay type: cell-based; settings: Clostridium perfringens, 3510, 48 h
C. perfringens 3513 = assay: microbe, parasite or virus in culture; assay type: cell-based; settings: Clostridium perfringens, 3513, 48 h
[8] = tested on: Peptostreptococcus anaerobius 3282; assay: Anaerobic agar dilution, Wilkens-Chalgren agar; assay type: cell-based; settings: Peptostreptococcus anaerobius, 3282; anaerobic, inoculum 10^6 cfu/spot, 35° C., 48 hours; read-out: MIC
[9] = tested on: S. aureus Gm^r Meth^r 4310; assay: Agar dilution, trypticase soy agar; settings: Staphylococcus aureus, 20 h
Ent. cloacae P99- 2647 [10] = assay: Agar dilution, trypticase soy agar; settings: Enterobacter cloacae, P992647, 20 h
[11] = tested on: B. thetalotamicron Clind^r, NCCLS control strain 4420; assay: Anaerobic agar dilution, Wilkens-Chalgren agar; assay type: cell-based; settings: anaerobic, inoculum 10^6 cfu/spot, 35° C., 48 hours; read-out: MIC
E. coli TEM 2+ DC2 4352 = assay: Agar dilution, trypticase soy agar; settings: Escherichia coli, 20 h
[12] = tested on: B. fragilis NCCLS control strain 4419; assay: Anaerobic agar dilution, Wilkens-Chalgren agar; assay type: cell-based; settings: Bacteroides fragilis; anaerobic, inoculum 10^6 cfu/spot, 35° C., 48 hours; read-out: MIC
C. perfringens 3511 = assay: microbe, parasite or virus in culture; assay type: cell-based; settings: Clostridium perfringens, 3511, 48 h
[13] = tested on: B. distasonis Pen^r, Fox^r 3445; assay: Anaerobic agar dilution, Wilkens-Chalgren agar; assay type: cell-based; settings: Parabacteroides distasonis, 48 h
B. ovatus Pen^r 3248 = assay: Anaerobic agar dilution, Wilkens-Chalgren agar; assay type: cell-based; settings: Bacteroides ovatus; anaerobic, inoculum 10^6 cfu/spot, 35° C., 48 hours; read-out: MIC
C. ramosum 4272 = assay: Anaerobic agar dilution, Wilkens-Chalgren agar; assay type: cell-based; settings: Thomasclavelia ramosa, 4272; anaerobic, inoculum 10^6 cfu/spot, 35° C., 48 hours; read-out: MIC
[14] = tested on: Ps. aeruginosa RPL11+ 3350; assay: Agar dilution, trypticase soy agar; settings: Pseudomonas aeruginosa, 20 h
[15] = tested on: Clostridium perfringens NCCLS control strain 4418; assay: microbe, parasite or virus in culture; assay type: cell-based; settings: 48 h
Prot. morganii Sm^r 2833 = assay: Agar dilution, trypticase soy agar; settings: Morganella morganii, 20 h
Ser. marcescens 2840 [16] = assay: Agar dilution, trypticase soy agar; settings: Serratia marcescens, 2840, 20 h
[17] = tested on: Fusobacterium mortiferum Fox^r 3345; assay: Anaerobic agar dilution, Wilkens-Chalgren agar; assay type: cell-based; settings: anaerobic, inoculum 10^6 cfu/spot, 35° C., 48 hours, read-out: MIC
[18] = tested on: Veillonella alcalescens 1952; assay: Anaerobic agar dilution, Wilkens-Chalgren agar; assay type: cell-based; settings: Veillonella parvula, 1952; anaerobic, inoculum 10^6 cfu/spot, 35° C., 48 hours; read-out: MIC
B. asaccharolyticus 4271 = assay: Anaerobic agar dilution, Wilkens-Chalgren agar; assay type: cell-based; settings: Porphyromonas asaccharolytica, 4271; anaerobic, inoculum 10^6 cfu/spot, 35° C., 48 hours; read-out: MIC
C. perfringens 3509 = assay: microbe, parasite or virus in culture; assay type: cell-based; settings: Clostridium perfringens, 3509, 48 h
[19] = tested on: B. thetalotamicron Clind^r 4362; assay: Anaerobic agar dilution, Wilkens-Chalgren agar; assay type: cell-based; settings: anaerobic, inoculum 10^6 cfu/spot, 35° C., 48 hours; read-out: MIC
Prot. vulgaris 2829 [20] = assay: Agar dilution, trypticase soy agar; settings: Proteus vulgaris, 2829, 20 h
[21] = tested on: Actinomyces naeslundii 4053; assay: Anaerobic agar dilution, Wilkens-Chalgren agar; assay type: cell-based; settings: Actinomyces naeslundii, 4053; anaerobic, inoculum 10^6 cfu/spot, 35° C., 48 hours; read-out: MIC
[22] = tested on: B. fragilis Clind^r, Fox^r, Tet^r 4360; assay: Anaerobic agar dilution, Wilkens-Chalgren agar; assay type: cell-based; settings: Bacteroides fragilis; anaerobic, inoculum 10^6 cfu/spot, 35° C., 48 hours; read-out: MIC
[23] = tested on: Bacteroides fragilis Met^r . Pen^r 4324; assay: Anaerobic agar dilution, Wilkens-Chalgren agar; assay type: cell-based; settings: anaerobic, inoculum 10^6 cfu/spot, 35° C., 48 hours, read-out: MIC
[24] = tested on: Propionibacterium acnes 2249; assay: Anaerobic agar dilution, Wilkens-Chalgren agar; assay type: cell-based; settings: Cutibacterium acnes, 2249; anaerobic, inoculum 10^6 cfu/spot, 35° C., 48 hours; read-out: MIC
E. coli TEM 2+ 4351 [25] = assay: Agar dilution, antagonist-free medium; settings: Escherichia coli, 20 h
E. coli 2891 [26] = assay: Agar dilution, antagonist-free medium; settings: Escherichia coli, 2891, 20 h
Sal. typhimurium 3860 [27] = assay: Agar dilution, antagonist-free medium; settings: Salmonella enterica, 20 h
Ent. cloacae P99- 2647 [28] = assay: Agar dilution, antagonist-free medium; settings: Enterobacter cloacae, P992647, 20 h
Ps. aeruginosa 4279 = assay: Agar dilution, antagonist-free medium; settings: Pseudomonas aeruginosa, 4279, 20 h
Staph. aureus 2865 = assay: Agar dilution, antagonist-free medium; settings: Staphylococcus aureus, 2865, 20 h
E. coli DC2 4353 = assay: Agar dilution, antagonist-free medium; settings: Escherichia coli, DC24353, 20 h
Ser. marcescens 2840 [29] = assay: Agar dilution, antagonist-free medium; settings: Serratia marcescens, 2840, 20 h
Prot. vulgaris 2829 [30] = assay: Agar dilution, antagonist-free medium; settings: Proteus vulgaris, 2829, 20 h

CO[C@@]1(NC(=O)Cc2cccs2)C(=O)N2C(C(=O)O)=C(COC(N)=O)CS[C@@H]21 [CEFOXITIN, Cefoxitin, reference compound]
MIC (Eubacterium limosum 3344): 1 µg/mL (≈ 2.34 µM)
MIC (E. coli TEM 2+ 4351 [1]): 4 µg/mL (≈ 9.36 µM)
MIC [2]: 4 µg/mL (≈ 9.36 µM)
MIC (Ent. cloacae P99+ 2646): 128 µg/mL (≈ 299 µM)
MIC [3]: 4 µg/mL (≈ 9.36 µM)
MIC (B. fragilis Pen^r 3214): 16 µg/mL (≈ 37.4 µM)
MIC (C. perfringens 3512): 1 µg/mL (≈ 2.34 µM)
MIC (K. pneumoniae 4005): 2 µg/mL (≈ 4.68 µM)
MIC (C. perfringens 2237): 2 µg/mL (≈ 4.68 µM)
MIC (Sal. typhimurium 3860 [4]): 4 µg/mL (≈ 9.36 µM)
MIC (E. coli 2891 [5]): 64 µg/mL (≈ 150 µM)
MIC [6]: 64 µg/mL (≈ 150 µM)
MIC (K. pneumoniae K1+ 4354): 4 µg/mL (≈ 9.36 µM)
MIC (C. difficile Fox^r 4380): 64 µg/mL (≈ 150 µM)
MIC [7]: 32 µg/mL (≈ 74.9 µM)
MIC (C. perfringens 3508): 0.25 µg/mL (≈ 0.585 µM)
MIC (C. perfringens 3510): 0.5 µg/mL (≈ 1.17 µM)
MIC (C. perfringens 3513): 2 µg/mL (≈ 4.68 µM)
MIC [8]: 1 µg/mL (≈ 2.34 µM)
MIC [9]: > 128 µg/mL
MIC (Ent. cloacae P99- 2647 [10]): 8 µg/mL (≈ 18.7 µM)
MIC [11]: 32 µg/mL (≈ 74.9 µM)
MIC (E. coli TEM 2+ DC2 4352): 2 µg/mL (≈ 4.68 µM)
MIC [12]: 8 µg/mL (≈ 18.7 µM)
MIC (C. perfringens 3511): 1 µg/mL (≈ 2.34 µM)
MIC [13]: 128 µg/mL (≈ 299 µM)
MIC (B. ovatus Pen^r 3248): 32 µg/mL (≈ 74.9 µM)
MIC (C. ramosum 4272): 32 µg/mL (≈ 74.9 µM)
MIC [14]: > 128 µg/mL
MIC [15]: 1 µg/mL (≈ 2.34 µM)
MIC (Prot. morganii Sm^r 2833): 8 µg/mL (≈ 18.7 µM)
MIC (Ser. marcescens 2840 [16]): 32 µg/mL (≈ 74.9 µM)
MIC [17]: 32 µg/mL (≈ 74.9 µM)
MIC [18]: 1 µg/mL (≈ 2.34 µM)
MIC (B. asaccharolyticus 4271): 0.5 µg/mL (≈ 1.17 µM)
MIC (C. perfringens 3509): 0.25 µg/mL (≈ 0.585 µM)
MIC [19]: 32 µg/mL (≈ 74.9 µM)
MIC (Prot. vulgaris 2829 [20]): 4 µg/mL (≈ 9.36 µM)
MIC [21]: 0.015 µg/mL (≈ 0.0351 µM)
MIC [22]: 32 µg/mL (≈ 74.9 µM)
MIC [23]: 4 µg/mL (≈ 9.36 µM)
MIC [24]: 0.06 µg/mL (≈ 0.14 µM)

N[C@@H]1CONC1=O [D-Cycloserine, D-cycloserine, reference compound]
MIC (E. coli TEM 2+ 4351 [25]): 2 µg/mL (≈ 19.6 µM)
MIC (E. coli 2891 [26]): 4 µg/mL (≈ 39.2 µM)
MIC (Sal. typhimurium 3860 [27]): 4 µg/mL (≈ 39.2 µM)
MIC (Ent. cloacae P99- 2647 [28]): 4 µg/mL (≈ 39.2 µM)
MIC (Ps. aeruginosa 4279): 16 µg/mL (≈ 157 µM)
MIC (Staph. aureus 2865): 2 µg/mL (≈ 19.6 µM)
MIC (E. coli DC2 4353): 8 µg/mL (≈ 78.4 µM)
MIC (Ser. marcescens 2840 [29]): > 256 µg/mL
MIC (Prot. vulgaris 2829 [30]): 32 µg/mL (≈ 313 µM)
